Earlier results on nine compounds are cited in patent publication US20060045865A1, “Controlled regional oral delivery” (Spherics, Inc., priority 2004, published 2006).

Like-named read-outs stand apart in the source and are kept apart here.

Test in series [1]: not given
The source holds these as a separate data set.

The next series concerns H. pylori. The conditions noted are these: pH 5.5.

Consider “1-[(4R,5s)-5-[(2-aminoethyl)amino]-N^2-(10,12-dimethyl-1-oxotetradecyl)-4-hydroxy-L-ornithine]-5-[(3IRI)-3-hydroxy-L-ornithine]pneumocandin B0 diacetate (salt) [Caspofungin acetate]”, for which the Solubility in water entry was “freely soluble”. For the same compound, the Bioavailability in series [1] (oral) is reported as 0%.
Consider `Nc1nc2c(ncn2COCCO)c(=O)[nH]1` [Acyclovir, 2-amino-1,9-dihydro-9-[(2-hydroxyethoxy)methyl]-6H-purin-6-one], for which the Bioavailability in series [1] (oral) is listed as 10-20%.
As for `NC(=O)N1c2ccccc2C=Cc2ccccc21` [Carbamazepine, 5H-dibenz[b,f]azepine-5-carboxamide], in series [1] (in vivo, po), the Bioavailability is given as 89%.
In the case of `C#C[C@]1(O)CC[C@H]2[C@@H]3CCC4=Cc5oncc5C[C@]4(C)[C@H]3CC[C@@]21C` [Danazol, 17a-Pregna-2,4-dien-20-yno[2,3-d]-isoxazol-17-ol], in series [1] (oral administration), the Half-life was 4 to 5 h. The “Time to peak plasma concentration” value in series [1] (oral dose) was not above 2 h.
`NCC1(CC(=O)O)CCCCC1` [Gabapentin]: the Bioavailability in series [1] (900 mg dose, given three times a day) was not above 60%.
On to `CC(=O)O[C@H]1C(=O)[C@@]2(C)[C@H]([C@H](OC(=O)c3ccccc3)[C@]3(O)C[C@H](OC(=O)[C@H](O)[C@@H](NC(=O)c4ccccc4)c4ccccc4)C(C)=C1C3(C)C)[C@]1(OC(C)=O)CO[C@@H]1C[C@@H]2O` [Paclitaxel], for which the Solubility in water result is “insoluble”.
As to `C=CC[C@@H]1/C=C(\C)C[C@H](C)C[C@H](OC)[C@H]2O[C@@](O)(C(=O)C(=O)N3CCCC[C@H]3C(=O)O[C@H](/C(C)=C/[C@@H]3CC[C@@H](O)[C@H](OC)C3)[C@H](C)[C@@H](O)CC1=O)[C@H](C)C[C@@H]2OC` [Tacrolimus], the Solubility in water result was “practically insoluble”. Further, the Absolute bioavailability result in series [1] (5 mg dose taken twice a day) was “approximately 17%”.
As for `CC(C)[C@H](N)C(=O)OCCOCn1cnc2c(=O)[nH]c(N)nc21` [Valacyclovir], the Solubility in water result is “greater solubility in water than acyclovir”. For the same compound, the Bioavailability result in series [1] (oral) is on record as “approximately 50%”.
For the compound `CC[C@H]1OC(=O)[C@H](C)[C@@H](O[C@H]2C[C@@](C)(OC)[C@@H](O)[C@H](C)O2)[C@H](C)[C@@H](O[C@@H]2O[C@H](C)C[C@H](N(C)C)[C@H]2O)[C@](C)(OC)C[C@@H](C)C(=O)[C@H](C)[C@@H](O)[C@]1(C)O` [clarithromycin], the Decrease in activity in the series with H. pylori is recorded as more than 16 fold.
